Three molecules from patent publication US20150316568A1, “Method for Screening Lyophilized Parenteral Formulations” (Cubist Pharmaceuticals, Inc., priority 2014, published 2015) can be followed below.

Data set [1] in a line: X-Ray Powder Diffraction (XRPD) of solid form pre/post lyophilization. It counts as physicochemical. The following applies: crystalline powder before lyophilization.
The text on data set [2]:
1. […] 2. […] 3. […] 4. […] 5. […] 6. […] 7. […] 8. […] 9. […] 10.

Take `O=C(O)c1cn(C2CC2)c2cc(N3CCNCC3)c(F)cc2c1=O` [Ciprofloxacin]: the “solid form after the lyophilization process (XRPD)” value (“solid form” for short) in data set [1] is “semi-crystalline forms”.

In the case of `Fc1ccc([C@@H]2CCNC[C@H]2COc2ccc3c(c2)OCO3)cc1` [Paroxetine], the solubility improvement in data set [2] is reported as 3-4 ×. Also, the “solid form” value in data set [1] is given as “amorphous form”.

Consider `CN1CCN(c2cc3c(cc2F)c(=O)c(C(=O)O)cn3-c2ccc(F)cc2)CC1` [Difloxacin], for which, in data set [2], the solubility improvement was 3-4 ×. In addition, in data set [1], the “solid form” value was “amorphous form”.
